In patent US11214803B2, “Modulators of YAP1 expression” (Ionis Pharmaceuticals, Inc., priority 2019, dated 2022):
Strand notation (5' to 3'): a small letter for the sugar, then the base; units joined by * are phosphorothioate-linked, units joined directly phosphodiester-linked; [ ] holds rarer units or linkages, { } end groups; capitals alone tell only the bases. k = constrained ethyl (cEt); [5mC] = 5-methylcytosine; d = 2'-deoxy (DNA)

Tested on: Yap1 mRNA
Experiment: Antisense inhibition of human Yap1 in A-431 cells by cEt gapmers, single dose (Example 2, RTS4814)
Format: cell-based
Method in brief: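 Free uptake, 2,000 nM, ~48 h, A-431 at 5,000 cells/well. Readout: RT-qPCR (RTS4814), RIBOGREEN-normalized, % UTC. 16-mer 3-10-3 cEt gapmers, full PS backbone, all C as 5-methylcytosine.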

[1] = Table 20, Yap1 mRNA, percent of untreated control, 3-10-3 cEt gapmers targeting SEQ ID NO.: 1 and 2
[2] = Table 21, Yap1 mRNA, percent of untreated control, 3-10-3 cEt gapmers targeting SEQ ID NO.: 1 and 2
[3] = Table 19, A-431 cells, 5,000 cells per well, free uptake, 2,000 nM modified oligonucleotide, approx. 48 hours, RTS4814, normalized to RIBOGREEN, Yap1 mRNA as percent of untreated control
[4] = Table 25, Yap1 mRNA as percent of untreated control, 3-10-3 cEt gapmers targeting SEQ ID NO.: 1, and 2
[5] = Table 24, Yap1 mRNA as percent of untreated control, 3-10-3 cEt gapmers targeting SEQ ID NO.: 1, and 2
[6] = Table 23, Yap1 mRNA as percent of untreated control, 3-10-3 cEt gapmers, single dose
[7] = Table 32, Yap1 mRNA, percent of untreated control, 3-10-3 cEt gapmers targeting SEQ ID NO.: 1, and 2
[8] = Yap1 mRNA as percent of untreated control, A-431 cells, 3-10-3 cEt gapmers targeting SEQ ID NO.: 1, and 2, Table 30
[9] = Table 22, Yap1 mRNA as percent of untreated control, 3-10-3 cEt gapmers, single dose
[10] = Table 5, A-431 cells, 5,000 cells per well, free uptake, 2,000 nM modified oligonucleotide, approx. 48 hours, RTS4814, normalized to RIBOGREEN, Yap1 mRNA relative to untreated control cells
[11] = A-431 cells, 5,000 cells per well, free uptake, 2,000 nM modified oligonucleotide, approx. 48 hours, RTS4814, normalized to RIBOGREEN, Table 4, asterisk (*) = targets amplicon region of primer probe set
[12] = Yap1 mRNA as percent of untreated control, A-431 cells, 3-10-3 cEt gapmers targeting SEQ ID NO.: 1, and 2, Table 31

1074598 (antisense k[5mC]*kT*kT*dA*dT*dA*dG*dT*dA*dT*dT*d[5mC]*dT*kA*kT*k[5mC]) [Compound 1074598]
YAP1 (% UTC) [1]: 46 % UTC

1075463 (antisense k[5mC]*kT*kT*dA*dA*dT*d[5mC]*d[5mC]*dA*dA*dA*dG*d[5mC]*kT*kT*k[5mC]) [Compound 1075463]
YAP1 (% UTC) [2]: 34 % UTC

1076487 (antisense kG*kT*kA*d[5mC]*dG*dA*dA*dA*d[5mC]*dG*dA*dA*dA*k[5mC]*kG*kG) [Compound 1076487]
YAP1 (% UTC) [2]: 21 % UTC

1074725 (antisense kG*kT*kA*dT*dA*dA*d[5mC]*dT*dG*dG*dG*d[5mC]*dA*kA*kA*kT) [Compound 1074725]
YAP1 (% UTC) [3]: 17 % UTC

1075083 (antisense k[5mC]*kA*kA*d[5mC]*dA*dA*d[5mC]*dA*d[5mC]*dT*d[5mC]*d[5mC]*dT*k[5mC]*kT*kT) [Compound 1075083]
YAP1 (% UTC) [4]: 54 % UTC

1075942 (kT*kG*kA*d[5mC]*dT*dA*dT*dA*d[5mC]*dA*dT*dG*dG*kT*kG*kA; antisense) [Compound 1075942]
YAP1 (% UTC) [1]: 46 % UTC

1075365 (k[5mC]*kA*k[5mC]*dG*dA*dA*dA*dA*dT*dA*dG*dT*dT*k[5mC]*kT*k[5mC]; antisense) [Compound 1075365]
YAP1 (% UTC) [3]: 11 % UTC

1076426 (kA*k[5mC]*kG*dG*dG*dA*dA*dA*dA*dT*dT*d[5mC]*dT*kG*kG*kA; antisense) [Compound 1076426]
YAP1 (% UTC) [5]: 9 % UTC

1074537 (antisense k[5mC]*kA*kG*dT*dA*dA*dT*dA*dG*d[5mC]*dT*d[5mC]*dT*kT*kT*k[5mC]) [Compound 1074537]
YAP1 (% UTC) [6]: 3 % UTC

1076274 (kT*kG*kA*dG*dA*dA*dT*dA*dG*dA*dG*d[5mC]*dA*kG*kG*kT; antisense) [compound 1076274]
YAP1 (% UTC) [7]: 9 % UTC

1074378 (antisense kG*kA*kA*dA*d[5mC]*dG*dG*dT*dT*d[5mC]*dT*dG*d[5mC]*kT*kG*kT) [Compound 1074378]
YAP1 (% UTC) [5]: 31 % UTC

1076498 (kT*kT*kA*d[5mC]*dA*dA*dT*dA*d[5mC]*d[5mC]*dT*dT*dA*kT*kG*kA; antisense) [compound 1076498]
YAP1 (% UTC) [7]: 70 % UTC

1074475 (kA*k[5mC]*k[5mC]*dA*dA*d[5mC]*d[5mC]*d[5mC]*d[5mC]*d[5mC]*d[5mC]*d[5mC]*dA*k[5mC]*k[5mC]*kG; antisense) [Compound 1074475]
YAP1 (% UTC) [4]: 72 % UTC

1074759 (k[5mC]*kA*kA*d[5mC]*d[5mC]*dA*dA*dG*dA*dA*dG*d[5mC]*dA*kG*kT*kT; antisense) [Compound 1074759]
YAP1 (% UTC) [2]: 43 % UTC

1076144 (kT*kT*kT*dT*dA*dT*dA*dG*dG*dG*d[5mC]*dA*dA*kT*kG*kG; antisense) [compound 1076144]
YAP1 (% UTC) [8]: 7 % UTC

1075336 (kG*k[5mC]*kT*dT*dA*dA*dT*dA*dA*dT*d[5mC]*dT*dA*k[5mC]*k[5mC]*kA; antisense) [Compound 1075336]
YAP1 (% UTC) [9]: 32 % UTC

1074227 (antisense kA*k[5mC]*kT*dG*dT*d[5mC]*dG*dA*dA*dG*dA*dT*dG*k[5mC]*kT*kG) [compound 1074227]
YAP1 (% UTC) (Table 33, Yap1 mRNA, percent of untreated control, 3-10-3 cEt gapmers targeting SEQ ID NO.: 1, and 2): 10 % UTC

1076168 (k[5mC]*kA*kA*dA*dT*dT*dT*dA*d[5mC]*dA*d[5mC]*d[5mC]*dA*k[5mC]*k[5mC]*kG; antisense) [Compound 1076168]
YAP1 (% UTC) [9]: 23 % UTC

716572 (k[5mC]*kA*kG*dT*dA*dA*dG*dA*dA*dG*d[5mC]*d[5mC]*dA*kA*kA*kA; antisense) [Compound 716572]
YAP1 (% UTC) [10]: 122 % UTC

1075335 (k[5mC]*kT*kT*dA*dA*dT*dA*dA*dT*d[5mC]*dT*dA*d[5mC]*k[5mC]*kA*kG; antisense) [Compound 1075335]
YAP1 (% UTC) [2]: 30 % UTC

1075592 (k[5mC]*kG*kT*dA*dA*dT*dA*dA*dT*d[5mC]*dA*d[5mC]*d[5mC]*kT*kT*kA; antisense) [Compound 1075592]
YAP1 (% UTC) [9]: 55 % UTC

716559 (k[5mC]*k[5mC]*kT*dA*dA*d[5mC]*dA*dT*dA*dT*dG*dA*dG*k[5mC]*kA*kT; antisense) [Compound 716559]
YAP1 (% UTC) [11]: 62 % UTC

716532 (antisense k[5mC]*kA*kA*dG*dA*dA*dG*d[5mC]*dA*dG*dT*dT*dA*kA*kG*k[5mC]) [Compound 716532]
YAP1 (% UTC) [11]: 70 % UTC

1074738 (k[5mC]*kT*kT*d[5mC]*dA*dG*dG*dT*d[5mC]*dA*dG*dT*dA*k[5mC]*kA*kG; antisense) [compound 1074738]
YAP1 (% UTC) [7]: 12 % UTC

716425 (kG*k[5mC]*kA*dA*dT*dA*d[5mC]*dA*dT*dT*dA*dA*d[5mC]*kA*kG*k[5mC]; antisense) [Compound 716425]
YAP1 (% UTC) [10]: 71 % UTC

1074482 (kT*kA*kA*dT*dA*dT*dG*dG*dT*d[5mC]*dA*dT*dT*kT*kG*k[5mC]; antisense) [compound 1074482]
YAP1 (% UTC) [7]: 12 % UTC

1075334 (kT*kT*kA*dA*dT*dA*dA*dT*d[5mC]*dT*dA*d[5mC]*d[5mC]*kA*kG*kT; antisense) [Compound 1075334]
YAP1 (% UTC) [1]: 60 % UTC

716567 (kG*kA*k[5mC]*dT*dA*dT*dA*d[5mC]*dA*dA*d[5mC]*dA*dG*kG*k[5mC]*k[5mC]; antisense) [Compound 716567]
YAP1 (% UTC) (Table 6, A-431 cells, 5,000 cells per well, free uptake, 2,000 nM modified oligonucleotide, approx. 48 hours, RTS4814, normalized to RIBOGREEN, Yap1 mRNA relative to untreated control cells): 134 % UTC

716352 (k[5mC]*kT*kG*d[5mC]*dG*d[5mC]*d[5mC]*d[5mC]*d[5mC]*dG*dG*d[5mC]*dT*k[5mC]*k[5mC]*kA; antisense) [Compound 716352]
YAP1 (% UTC) [11]: 105 % UTC

1076081 (kG*kA*kT*dA*dA*dT*dT*d[5mC]*dA*d[5mC]*d[5mC]*d[5mC]*dT*kT*kG*kT; antisense) [compound 1076081]
YAP1 (% UTC) [12]: 15 % UTC

1075505 (kG*k[5mC]*kT*dA*dA*dA*dT*dT*dA*d[5mC]*dA*dG*dA*kG*kG*kT; antisense) [compound 1075505]
YAP1 (% UTC) [12]: 18 % UTC

1074597 (antisense kA*kG*kT*dA*dT*dT*d[5mC]*dT*dA*dT*d[5mC]*d[5mC]*dA*kG*kG*kG) [Compound 1074597]
YAP1 (% UTC) [3]: 5 % UTC

716512 (antisense kA*k[5mC]*kT*d[5mC]*d[5mC]*dT*dT*d[5mC]*d[5mC]*dA*dA*dG*dT*kA*kG*k[5mC]) [Compound 716512]
YAP1 (% UTC) [10]: 99 % UTC

1075238 (antisense k[5mC]*kT*kT*dA*dA*dA*d[5mC]*dA*dG*dG*dT*dG*d[5mC]*k[5mC]*kA*kA) [Compound 1075238]
YAP1 (% UTC) [1]: 24 % UTC

1074315 (antisense kG*kA*kT*dT*dG*dA*dT*dA*dT*dT*d[5mC]*d[5mC]*dG*k[5mC]*kA*kT) [Compound 1074315]
YAP1 (% UTC) [4]: 3 % UTC

716469 (kG*kT*kT*dT*dG*d[5mC]*dT*d[5mC]*d[5mC]*dT*dT*dT*d[5mC]*k[5mC]*kA*kA; antisense) [Compound 716469]
YAP1 (% UTC) [11]: 25 % UTC

1075015 (antisense k[5mC]*kA*kG*dA*dA*dT*dA*dA*dG*dT*dA*dT*dG*kA*kT*kT) [Compound 1075015]
YAP1 (% UTC) [2]: 55 % UTC

1075112 (antisense kA*kT*kA*dT*dA*dG*dG*dA*dA*dT*dA*dT*dG*kG*kG*kT) [Compound 1075112]
YAP1 (% UTC) [9]: 6 % UTC

1075568 (kT*kT*kA*dT*dT*dT*dA*dA*dG*dT*dT*dG*dG*kG*kA*kG; antisense) [compound 1075568]
YAP1 (% UTC) [8]: 23 % UTC

716478 (kT*kA*kT*dT*dT*dT*dA*dA*dT*d[5mC]*dT*dA*dG*kT*k[5mC]*kG; antisense) [Compound 716478]
YAP1 (% UTC) [11]: 46 % UTC

1076553 (antisense kT*kG*kG*dG*dA*dA*dT*dA*dA*dT*dT*dT*dG*kG*k[5mC]*k[5mC]) [Compound 1076553]
YAP1 (% UTC) [6]: 69 % UTC

1074631 (antisense k[5mC]*kA*kT*dA*dG*d[5mC]*dA*dG*d[5mC]*dT*dT*dT*dT*kG*k[5mC]*k[5mC]) [Compound 1074631]
YAP1 (% UTC) [2]: 9 % UTC

716445 (kG*kT*kA*dT*dG*dT*dG*dG*d[5mC]*dA*dA*dT*dA*kA*kT*kT; antisense) [Compound 716445]
YAP1 (% UTC) [11]: 28 % UTC

1075504 (k[5mC]*kT*kT*dA*dA*dA*dT*dG*dA*dG*dA*dG*dA*kA*k[5mC]*k[5mC]; antisense) [compound 1075504]
YAP1 (% UTC) [8]: 71 % UTC

716413 (kT*k[5mC]*k[5mC]*dA*dA*dG*dG*dT*d[5mC]*d[5mC]*dA*d[5mC]*dA*kT*kT*kT; antisense) [Compound 716413]
YAP1 (% UTC) [10]: 79 % UTC

1075205 (antisense kA*kT*kT*dA*dA*dA*dT*dG*dA*dG*d[5mC]*dA*d[5mC]*k[5mC]*kA*k[5mC]) [Compound 1075205]
YAP1 (% UTC) [3]: 29 % UTC
